Test results: patent US20140051650A1, “VAGINAL COMPOSITIONS BASED ON ALKYL POLYGLUCOSIDES” (EFFIK S.A., priority 2011, published 2014)

Legend:
Assay type in all cases: cell-based
[1] = system: Lactobacillus gasseri NCIMB 702820; assay: MIC against Lactobacillus gasseri; conditions: substance alone
Method: (§1) The vaginal lactobacillus strains used are the NCIMB 4505 strain of Lactobacillus crispatus, the NCIMB 13279 strain of Lactobacillus jensenii and NCIMB 702820 strain of Lactobacillus gasseri. [table] The other assayed microbial strains were cultured in the liquid media and in the incubation conditions specified in table A, following the operating procedure described above. The assay was carried out in 96-well microtitre plates. 50 μl of substance solution at the “mother” concentration alongside 50 μl of liquid medium at double concentration were deposited in the first well of each of the 8 rows while 50 μl of liquid medium at normal concentration were deposited in the remaining 11 wells. Starting from the first well of each row, 50 μl volumes were transferred from each well to the subsequent one 10 times, thus obtaining a series of 11 dilutions after doubling. The 12th well of each row was kept substance-free as a function of positive control of the bacterial growth. Subsequently, 50 μl of diluted bacterial inoculum as specified previously were deposited in all wells of the plate, except for the 11th of each row. Only the liquid medium at single concentration but bacteria-free, was deposited in the 11th well, with the aim of providing negative control for each row. The described scheme was used for the assay with each of the assayed microbial strains. […]

[2] = system: Lactobacillus crispatus NCIMB 4505; assay: MBC against Lactobacillus crispatus; conditions: substance alone
Method: (§2) The vaginal lactobacillus strains used are the NCIMB 4505 strain of Lactobacillus crispatus, the NCIMB 13279 strain of Lactobacillus jensenii and NCIMB 702820 strain of Lactobacillus gasseri. [table] The other assayed microbial strains were cultured in the liquid media and in the incubation conditions specified in table A, following the operating procedure described above. Immediately after determining the value of the MIC for each substance, a volume equivalent to 50 μl was taken from each well and streaked on the surface of plates containing the solid medium. The plates were subsequently incubated at the conditions indicated for each microbial strain. After incubation at 37° C. for 24 hours, the number of colonies grown on the medium surface was counted thus determining the number of bacteria that survived after 24 hours of contact with the substance at the concentration present in the well. The MBC value defined as the lowest concentration of each substance capable of reducing the bacterial load by 99.9% in the previously defined assay conditions was determined through comparison between the number of bacteria that survived in each well and that of the bacterial inoculum deposited initially.

[3] = system: Lactobacillus gasseri NCIMB 702820; assay: MBC against Lactobacillus gasseri; conditions: substance alone
Method: as §2

[4] = system: Lactobacillus crispatus NCIMB 4505; assay: MIC against Lactobacillus crispatus; conditions: substance alone
Method: as §1

[5] = system: Lactobacillus jensenii NCIMB 13279; assay: MIC against Lactobacillus jensenii; conditions: substance alone
Method: as §1

[6] = system: Lactobacillus jensenii NCIMB 13279; assay: MBC against Lactobacillus jensenii; conditions: substance alone
Method: as §2

Streptococcus agalactiae = assay: Minimum Inhibitory Concentration (MIC) on agarised medium against Streptococcus agalactiae
Method: The assay was carried out on an M-Ha medium+blood at 5%. The medium was prepared at a concentration 33% higher with respect to the final one used in the test corresponding to the one indicated by the supplier. After sterilisation in autoclave, the medium was balanced at the temperature of 48° C. and added with horse blood at the concentration of 6.6% (33% higher than the final concentration of the assay). 15 ml aliquots of M-Ha medium+blood were transferred into 50 ml falcon test tubes maintained at 48° C., added with 5 ml of the dilutions of the substances to be assayed, mixed, poured into Petri dishes and left to solidify. Twenty-five bacterial inoculums, each with approximate volume of about 5 μl and containing about 10^5 ufc, were deposited on the surface of the M-Ha medium+blood of each plate. After incubation at 37° C. for 18 hours the minimum inhibitory concentration (MIC) defined as the minimum concentration of substance capable of inhibiting a bacterial growth noticeable to the naked eye at the area of deposition of the inoculums was read.
In the test with Streptococcus agalactiae the minimum inhibitory concentrations in the assay in liquid medium, regarding which only the bactericide minimum concentration values are indicated, could not be determined with sufficient reliability due to the turbidity of the solutions containing the substances. “Determination of the Minimum Inhibitory Concentration on Agarised Medium” was carried out to obtain the MIC values.

| Substance | MIC [1] [%] | MBC [2] [%] | MBC [3] [%] | MIC [4] [%] | MIC [5] [%] | MBC [6] [%] | MIC (minimum inhibiting concentration) (Streptococcus agalactiae; strain 2, substance alone) [%] | MIC (minimum inhibiting concentration) (Streptococcus agalactiae; strain 5, substance alone) [%] | MIC (minimum inhibiting concentration) (Streptococcus agalactiae; strain 6, substance alone) [%] | MIC (minimum inhibiting concentration) (Streptococcus agalactiae; strain 7, substance alone) [%] | MIC (minimum inhibiting concentration) (Streptococcus agalactiae; strain 8, substance alone) [%] | MIC (minimum inhibiting concentration) (Streptococcus agalactiae; strain 9, substance alone) [%] | MIC (minimum inhibiting concentration) (Streptococcus agalactiae; strain 10, substance alone) [%] | MIC (minimum inhibiting concentration) (Streptococcus agalactiae; strain 11, substance alone) [%] | MIC (minimum inhibiting concentration) (Streptococcus agalactiae; strain 12, substance alone) [%] | MIC (minimum inhibiting concentration) (Streptococcus agalactiae; strain 13, substance alone) [%] | MIC (minimum inhibiting concentration) (Streptococcus agalactiae; strain 14, substance alone) [%] | MIC (minimum inhibiting concentration) (Streptococcus agalactiae; strain 15, substance alone) [%] | MIC (minimum inhibiting concentration) (Streptococcus agalactiae; strain 16, substance alone) [%] | MIC (minimum inhibiting concentration) (Streptococcus agalactiae; strain 17, substance alone) [%] | further results |
| --- | --- | --- | --- | --- | --- | --- | --- | --- | --- | --- | --- | --- | --- | --- | --- | --- | --- | --- | --- | --- | --- |
| caprylyl/capryl glucoside/C8-C10 alkyl polyglucoside [Substance A1] | 0.097 | 0.193 | 0.193 | 0.097 | 0.193 | 0.193 | 0.093 | 0.093 | 0.048 | 0.093 | 0.19 | 0.093 | 0.19 | 0.093 | 0.093 | 0.093 | 0.093 | 0.048 | 0.093 | 0.048 | MIC (minimum inhibiting concentration) (Streptococcus agalactiae; strain 18, substance alone): 0.19%; MIC (minimum inhibiting concentration) (Streptococcus agalactiae; strain 19, substance alone): 0.093%; MIC (minimum inhibiting concentration) (Streptococcus agalactiae; strain 20, substance alone): 0.048%; MIC (minimum inhibiting concentration) (Streptococcus agalactiae; strain 21, substance alone): 0.048%; MIC (minimum inhibiting concentration) (Streptococcus agalactiae; strain 22, substance alone): 0.093%; MIC (minimum inhibiting concentration) (Streptococcus agalactiae; strain 23, substance alone): 0.093%; MIC (minimum inhibiting concentration) (Streptococcus agalactiae; strain 24, substance alone): 0.093%; MIC (minimum inhibiting concentration) (Streptococcus agalactiae; strain 25, substance alone): 0.048%; MIC (minimum inhibiting concentration) (Streptococcus agalactiae; strain 12386, substance alone): 0.093%; MIC (minimum inhibiting concentration) (Streptococcus agalactiae; strain 12403, substance alone): 0.093%; MIC (minimum inhibiting concentration) (Streptococcus agalactiae; strain 27956, substance alone): 0.093% |
| lauryl glucoside/C12-C16 alkyl polyglucoside [Substance A2] | 0.077 | 0.077 | 0.077 | 0.038 | 0.077 | 0.077 | 0.0097 | 0.019 | 0.0097 | 0.0097 | 0.019 | 0.0097 | 0.019 | 0.0097 | 0.0097 | 0.0097 | 0.0097 | 0.019 | 0.0097 | 0.0097 | MIC (minimum inhibiting concentration) (Streptococcus agalactiae; strain 18, substance alone): 0.019%; MIC (minimum inhibiting concentration) (Streptococcus agalactiae; strain 19, substance alone): 0.0097%; MIC (minimum inhibiting concentration) (Streptococcus agalactiae; strain 20, substance alone): 0.0097%; MIC (minimum inhibiting concentration) (Streptococcus agalactiae; strain 21, substance alone): 0.0097%; MIC (minimum inhibiting concentration) (Streptococcus agalactiae; strain 22, substance alone): 0.0097%; MIC (minimum inhibiting concentration) (Streptococcus agalactiae; strain 23, substance alone): 0.0097%; MIC (minimum inhibiting concentration) (Streptococcus agalactiae; strain 24, substance alone): 0.0097%; MIC (minimum inhibiting concentration) (Streptococcus agalactiae; strain 25, substance alone): 0.0097%; MIC (minimum inhibiting concentration) (Streptococcus agalactiae; strain 12386, substance alone): 0.0097%; MIC (minimum inhibiting concentration) (Streptococcus agalactiae; strain 12403, substance alone): 0.0097%; MIC (minimum inhibiting concentration) (Streptococcus agalactiae; strain 27956, substance alone): 0.019% |
